Species: Rattus norvegicus
Assay: Open TG-GATES - Regimen: Single
Assay type: toxicity, organism-based, Sprague-Dawley
Parameters: regimen Single, gender Male, age 6 weeks
Details: in vivo, po, 15 mg/kg, route gavage, dose level Low; for APTT / Bas / Eos / Fbg / Hb / Ht / Lym / MCHC / MCV / Mono / Neu / PT / Plat / RBC / Ret / WBC: tissue Blood; for KIDNEY_L / KIDNEY_R / KIDNEY_TOTAL: tissue Kidney; for LIVER: tissue Liver; for ALP / ALT / AST / BUN / CRE / Ca / Cl / DBIL / GLC / IP / K / LDH / Na / PL / RALB / TBIL / TC / TG / TP / gamma-GTP: tissue Plasma

C1CCC(C(CC2CCCCN2)C2CCCCC2)CC1 (centres undefined) [PERHEXILINE]
TERMINAL_BW (3 h): 217 g
APTT (3 h): 20.2 s
Bas (3 h): 0%
Eos (3 h): 0.6%
Fbg (3 h): 331 mg/dL
Hb (3 h): 13.3 g/dL
Ht (3 h): 39.6%
Lym (3 h): 79.8%
MCHC (3 h): 33.5%
MCV (3 h): 63.8 fL
Mono (3 h): 1.8%
Neu (3 h): 16.8%
PT (3 h): 15.6 s
Plat (3 h): 121.9 x10_4/uL
RBC (3 h): 620.8 x10_4/ul
Ret (3 h): 7.8%
WBC (3 h): 62.3 x10_2/uL
KIDNEY_L (3 h): 1 g
KIDNEY_R (3 h): 1 g
KIDNEY_TOTAL (3 h): 1.9 g
LIVER (3 h): 10.1 g
ALP (3 h): 1601.6 IU/L
ALT (3 h): 47 IU/L
AST (3 h): 74 IU/L
BUN (3 h): 13 mg/dL
CRE (3 h): 0.1 mg/dL
Ca (3 h): 11 mg/dL
Cl (3 h): 105.6 meq/L
DBIL (3 h): 0.002 mg/dL
GLC (3 h): 181.2 mg/dL
IP (3 h): 8.6 mg/dL
K (3 h): 4 meq/L
LDH (3 h): 183.8 IU/L
Na (3 h): 140.8 meq/L
PL (3 h): 149.4 mg/dL
RALB (3 h): 3.2 g/dL
TBIL (3 h): 0.022 mg/dL
TC (3 h): 81.2 mg/dL
TG (3 h): 90.2 mg/dL
TP (3 h): 5.7 g/dL
gamma-GTP (3 h): 0.6 IU/L
TERMINAL_BW (6 h): 212 g
APTT (6 h): 20.7 s
Bas (6 h): 0%
Eos (6 h): 0.8%
Fbg (6 h): 320.2 mg/dL
Hb (6 h): 13.1 g/dL
Ht (6 h): 39.6%
Lym (6 h): 79.6%
MCHC (6 h): 33.1%
MCV (6 h): 64.4 fL
Mono (6 h): 2%
Neu (6 h): 16.4%
PT (6 h): 15.6 s
Plat (6 h): 134.6 x10_4/uL
RBC (6 h): 615.4 x10_4/ul
Ret (6 h): 7.9%
WBC (6 h): 77.4 x10_2/uL
KIDNEY_L (6 h): 1 g
KIDNEY_R (6 h): 1 g
KIDNEY_TOTAL (6 h): 2 g
LIVER (6 h): 9.5 g
ALP (6 h): 1590.2 IU/L
ALT (6 h): 39 IU/L
AST (6 h): 70 IU/L
BUN (6 h): 10.6 mg/dL
CRE (6 h): 0.1 mg/dL
Ca (6 h): 10.9 mg/dL
Cl (6 h): 105.8 meq/L
DBIL (6 h): 0 mg/dL
GLC (6 h): 170.4 mg/dL
IP (6 h): 9.5 mg/dL
K (6 h): 4.4 meq/L
LDH (6 h): 209.6 IU/L
Na (6 h): 139.2 meq/L
PL (6 h): 134.6 mg/dL
RALB (6 h): 3.1 g/dL
TBIL (6 h): 0.018 mg/dL
TC (6 h): 77.2 mg/dL
TG (6 h): 73.6 mg/dL
TP (6 h): 5.6 g/dL
gamma-GTP (6 h): 1 IU/L
TERMINAL_BW (9 h): 204.6 g
APTT (9 h): 21.4 s
Bas (9 h): 0%
Eos (9 h): 0.8%
Fbg (9 h): 303.4 mg/dL
Hb (9 h): 12.8 g/dL
Ht (9 h): 38.4%
Lym (9 h): 76.2%
MCHC (9 h): 33.5%
MCV (9 h): 62.1 fL
Mono (9 h): 1.6%
Neu (9 h): 21%
PT (9 h): 15.5 s
Plat (9 h): 127.1 x10_4/uL
RBC (9 h): 619.8 x10_4/ul
Ret (9 h): 7%
WBC (9 h): 67.3 x10_2/uL
KIDNEY_L (9 h): 1 g
KIDNEY_R (9 h): 1 g
KIDNEY_TOTAL (9 h): 2 g
LIVER (9 h): 8.9 g
ALP (9 h): 1312.6 IU/L
ALT (9 h): 38 IU/L
AST (9 h): 65.8 IU/L
BUN (9 h): 10.2 mg/dL
CRE (9 h): 0.1 mg/dL
Ca (9 h): 11 mg/dL
Cl (9 h): 105.6 meq/L
DBIL (9 h): 0.004 mg/dL
GLC (9 h): 172 mg/dL
IP (9 h): 9.4 mg/dL
K (9 h): 3.9 meq/L
LDH (9 h): 186.2 IU/L
Na (9 h): 139.6 meq/L
PL (9 h): 124.4 mg/dL
RALB (9 h): 3.1 g/dL
TBIL (9 h): 0.014 mg/dL
TC (9 h): 68.8 mg/dL
TG (9 h): 49.2 mg/dL
TP (9 h): 5.7 g/dL
gamma-GTP (9 h): 1 IU/L
TERMINAL_BW (24 h): 216.9 g
APTT (24 h): 20.4 s
Bas (24 h): 0%
Eos (24 h): 0.8%
Fbg (24 h): 319.6 mg/dL
Hb (24 h): 13.3 g/dL
Ht (24 h): 39.1%
Lym (24 h): 77.8%
MCHC (24 h): 34.1%
MCV (24 h): 63.5 fL
Mono (24 h): 1.8%
Neu (24 h): 18.6%
PT (24 h): 15.8 s
Plat (24 h): 130.2 x10_4/uL
RBC (24 h): 616.8 x10_4/ul
Ret (24 h): 6.2%
WBC (24 h): 108.7 x10_2/uL
KIDNEY_L (24 h): 1 g
KIDNEY_R (24 h): 1 g
KIDNEY_TOTAL (24 h): 1.9 g
LIVER (24 h): 10 g
ALP (24 h): 1593 IU/L
ALT (24 h): 47 IU/L
AST (24 h): 70.6 IU/L
BUN (24 h): 17 mg/dL
CRE (24 h): 0.1 mg/dL
Ca (24 h): 10.8 mg/dL
Cl (24 h): 106.8 meq/L
DBIL (24 h): 0 mg/dL
GLC (24 h): 185.6 mg/dL
IP (24 h): 7.1 mg/dL
K (24 h): 4.1 meq/L
LDH (24 h): 212.8 IU/L
Na (24 h): 142 meq/L
PL (24 h): 158.8 mg/dL
RALB (24 h): 3.2 g/dL
TBIL (24 h): 0.012 mg/dL
TC (24 h): 81.8 mg/dL
TG (24 h): 122 mg/dL
TP (24 h): 5.7 g/dL
gamma-GTP (24 h): 1 IU/L
